Entries after “also recorded” stand apart in the source; their conditions may differ.
Experiments:
[1] = tested on: IL-6; assay: Cytokine production in spleen cell cultures after MOG35-55/CFA immunization (cytokine bead assay); format: in vivo, mice; conditions: spleen cells collected 11 days after immunization, cultured 72 hours with MOG35-55 (0, 0.7, 2.2, 6.7 and 20.0 μg/mL); treatment from Day -16
Method: The objective of this study was to determine the effects of arsenic trioxide on cytokine production by T lymphocytes from draining lymph nodes and spleen after immunization with MOG35-55/CFA.
There were 2 experimental groups with 6 mice/group.
Treatment started on Day −16.
Mice were immunized with MOG35-55/CFA on Day 0.
Eleven days after immunization, mice were euthanized, spleens and lymph nodes collected and cell suspensions prepared. Cell suspensions were cultured for 3 days in the presence of multiple concentrations of MOG35-55. The culture supernatants were collected at the end of this 3-day culture period. The concentrations of 7 cytokines (IL-2, IL-4, IL-6, IL-10, IL-17A, TNF, and IFN-γ) were determined in the culture supernatants using Th1/Th2/Th17 cytokine bead assay (CBA) kit from Becton Dickinson.

[2] = tested on: MOG35-55-induced EAE; assay: MOG35-55-induced prophylactic/therapeutic EAE model; format: in vivo, C57BL/6 mice; conditions: for EAE disease severity compared to the vehicle group / EAE onset compared to the vehicle group: started 7 days before EAE induction
Method: The study objective was to evaluate the effects of arsenic trioxide (1 mg/ml), administered i.v., QD, starting 7 days before EAE induction, on EAE development in the MOG35-55-induced prophylactic/therapeutic EAE model, known as the more robust and direct animal model to trigger and observe the autoimmune cascade involving the central nervous system and ensuing demyelination.
EAE was induced by MOG35-55/CFA immunization and pertussis toxin injection in C57BL/6 mice.
There were 2 experimental groups with 12 mice per group. Mice were treated prophylactically.
The study used a total of 24 female C57BL/6 mice (Taconic Farms, 10 weeks old).
EAE was induced in all mice as follows:
Day 0, Hour 0—Immunization with MOG35-55/CFA
Day 0, Hour 2—Injection of pertussis toxin
Day 1, Hour 0—2nd injection of pertussis toxin (24 hours after initial immunization)
Mice were injected subcutaneously at two sites in the back with the emulsion component (containing MOG35-55) of Hooke Kit™ […] Emulsion PTX, catalog number EK-2110 (Hooke Laboratories, Lawrence Mass.). One site of injection was in the area of upper back, approximately 1 cm caudal of the neck line. The second site was in the area of lower back, approximately 2 cm cranial of the base of the tail. The injection volume was 0.1 mL at each site.
Within 2 hours of the injection of emulsion, and then again 24 hours after the injection of emulsion, the pertussis toxin component of the kit was administered intraperitoneally. The volume of each injection was 0.1 mL.
To optimize disease severity for this particular study, the pertussis toxin was administered at 165 ng/dose for the first injection and 154 ng/dose for the second injection.
There were 2 groups of 12 mice each.
Mice were assigned to groups 7 days before immunization (Day −7), balanced to achieve similar weight at the start of the study.
Treatment was according to Table 1 below.
Dosing of all mice was at the same time (+/−1 hour) on each day.
Dosing of all mice started on Day −7 (7 days before EAE induction) and continued until Day 27.
Group 2 was dosed at 2 mg/kg from Day −7 to Day −1, and at 3 mg/kg until Day 27.
Mice were scored for EAE and weighed until Day 35, the last day of the study.
Readouts were EAE scores and body weight at the end of the study.
Mice were scored daily from Day 7 after immunization until the end of the study, and body weight was measured three times/week (Monday, Wednesday and Friday), starting on Day −7.
Scoring was performed blind, by a person unaware of both treatment and of previous scores for each mouse.
EAE was scored on scale 0 to 5: • 0 No obvious changes in motor functions of the mouse in comparison to non-immunized mice. • When picked up by the tail, the tail has tension and is erect. Hind legs are usually spread apart. When the mouse is walking, there is no gait or head tilting. • 1 Limp tail. • When the mouse is picked up by the tail, instead of being erect, the whole tail drapes over finger. • 2 Limp tail and weakness of hind legs. • When mouse is picked up by tail, legs are not spread apart, but held closer together. When the mouse is observed walking, it has a clearly apparent wobbly walk. • 3 Limp tail and complete paralysis of hind legs (most common). • OR • Limp tail with paralysis of one front and one hind leg. • OR • ALL of: • Severe head tilting, • Walking only along the edges of the cage, • Pushing against the cage wall, • Spinning when picked up by the tail. • 4 Limp tail, complete hind leg and partial front leg paralysis. • Mouse is minimally moving around the cage but appears alert and feeding. • Usually, euthanasia is recommended after the mouse scores level 4 for 2 days. When the mouse is euthanized because of severe paralysis, score of 5 is entered for that mouse for the rest of the experiment. • 5 Complete hind and complete front leg paralysis, no movement around the cage. • OR • Mouse is spontaneously rolling in the cage. • OR • Mouse is found dead due to paralysis. […]

[3] = 3 mg/kg, i.v., QD, listed as Arsenic trioxide
[4] = to Day 28 (end of treatment), 3 mg/kg, i.v., QD

In the case of arsenic trioxide, the “IL-6 concentration in spleen cell cultures” value [1] is reported as “significant reduction of IL-6 concentration”, the “Body weight compared to the vehicle treated controls” value ([2]; 3 mg/kg, i.v., QD) is reported as “higher body weight” and the “EAE disease severity compared to the vehicle group” value ([2]; 3 mg/kg, i.v., QD) is reported as “overall severity was lower; also recorded: reducing disease severity”. The “EAE onset compared to the vehicle group” value ([2]; 3 mg/kg, i.v., QD) was “disease onset was postponed; also recorded: efficacious at postponing EAE onset”, the “EAE disease severity compared to the vehicle group” value [2, 3] was “reducing disease severity” and the “EAE onset compared to the vehicle group” value [2, 3] was “efficacious at postponing EAE onset”. For the same substance, the “Efficacy after the treatment was stopped” value ([2]; 7 days after the treatment was stopped (Day 35)) was “efficacy was maintained 7 days after the treatment was stopped”, the “Day 27 % body weight +/- SD” value ([2]; Day 27, 3 mg/kg, i.v., QD) was 97.3 +/− 5.1% and the “End % body weight +/- SD” value ([2]; Day 35 (end of study), 3 mg/kg, i.v., QD) was 93.2 +/− 6.4%. For the same substance, the Deaths in group ([2]; group of 12 mice, 3 mg/kg, i.v., QD, death not from EAE nor from i.v. dosing complications) was “One mouse died”, the “EAE incidence (%)” value ([2]; to Day 28 (end of treatment), 2 mg/kg Day -7 to -1, then 3 mg/kg to Day 27, i.v., QD) was 100% and the “Mean day of onset +/- SEM (sick mice)” value [2, 4] was 17.5 ± 1.1 days. For the same substance, the “Median day of onset (all mice)” value [2, 4] was 17.0 days and the “MMS +/- SD (mean maximum score)” value ([2]; to Day 28 (end of treatment), EAE scale 0 to 5, 3 mg/kg, i.v., QD) was 3.41 +/− 0.30.
